# Experimental data published in publication PMC9525273 (Nature Communications, 2022).
# Columns and labels:
# [1] = clinical trials, sustained periods; cited from earlier work
# NF54^G358S-3 parasites = experiment: P. falciparum proliferation assay (72 h, flow cytometry, SYBR Green I/MitoTracker); assay type: cell-based; conditions: Plasmodium falciparum, NF54G358S-3, mean ± SEM, n = 3
# Method: Two types of parasite proliferation assays were employed in this study, with both yielding highly consistent results. For the NF54-based lines and Dd2-B2-PfATP4^G358S and its parent, assays were initiated with cultures containing predominantly ring-stage parasites with a parasitaemia of 0.3% and a haematocrit of 1%. All assays using NF54 were performed in culture media containing 10% O + human serum. The duration of the assays was 72 h and the concentration of DMSO was <0.5% (v/v). Serial dilutions of the test compounds were performed using a Tecan D300e digital dispenser, with parasite cultures added manually. Parasite survival was assessed by flow cytometry on an Intellicyt iQue3 (Essen Bioscience), with 1× SYBR Green I (Invitrogen) and 200 nM MitoTracker Deep Red FM (Invitrogen) used to stain the nucleus and the mitochondria in live parasites, respectively. The gating strategy used to quantify parasite survival, performed using FlowJo version 10 (FlowJo LLC.), is illustrated in Supplementary Fig. 9. IC50 and IC90 values were calculated by linear interpolation of the dose-response data.
# [2] = tested on: cipargamin-selected culture A (from Dd2-PfATP4^T418N,P990R); experiment: P. falciparum proliferation assay (72 h, fluorescent DNA-intercalating dye); assay type: cell-based; conditions: Plasmodium falciparum, culture A at end of drug-exposure period, mean ± SEM, n = 3
# Method: (§1) For experiments with all other parasites, the effects of compounds of interest on parasite proliferation was measured in 96-well plates containing serial dilutions of the compounds in culture medium, with a fluorescent DNA-intercalating dye used to detect surviving parasites. The assays were initiated with erythrocytes infected with predominantly ring-stage parasites, and the starting parasitaemia and haematocrit were both 1%. […] Fluorescence was measured using a FLUOstar OPTIMA plate reader (BMG LABTECH), with OPTIMA version 2.20R2 and MARS Data Analysis Software version 3.01 R2 (BMG LABTECH).
# [3] = tested on: cipargamin-selected culture B (from Dd2-PfATP4^T418N,P990R); experiment: as above; assay type: cell-based; conditions: Plasmodium falciparum, culture B at end of drug-exposure period, mean ± SEM, n = 3
# Method: as §1
structure (smiles),measurement,setting,value
C[C@H]1Cc2c([nH]c3cc(Cl)c(F)cc23)[C@@]2(N1)C(=O)Nc1ccc(Cl)cc12 [Cipargamin],concentration reached in human plasma,[1],supramicromolar concentrations
same,IC50,NF54^G358S-3 parasites,2.2 ± 0.7 µM
same,IC50,[2],5.9 ± 0.2 µM
same,IC50,[3],6.2 ± 0.2 µM
